Results from patent publication US20110293525A1, “TUMOR STEM CELLS” (BOARD OF TRUSTEES OF THE UNIVERSITY OF ILLINOIS, priority 2010, published 2011).

Key:
tumor cell lines = test: MTT viability after 72 h exposure to 0-600 μM DETA-NONOate; type: cell-based; details: doses 0-600 μM
Experimental: (§1) Viability of Long Term NO Adapted Cultures: Cells from each of the cell lines were seeded (100 μL) into 96-wellmicrotiter plates and grown for 24 h, to ˜70% confluency. The media was then removed, and the cells were treated with 100-μL media containing varying concentrations (0-600 μM) of DETA-NONOate. Following an additional 72-h incubation period, cell proliferation/viability was assessed using the 3-(4,5-dimethylthiazol-2-yl)-2,5-diphenyltetrazolium bromide (MTT) assay. Media was removed from each well, and 100 μL of 2 mg/mL of MTT (Sigma-Aldrich Corp., St. Louis, Mo. USA) in phosphate buffer saline (PBS) was added. Plates were then placed in an incubator (37° C.) for 5 h, during which time purple formazan crystals formed upon the reaction of the MTT with mitochondrial dehydrogenases of viable cells. Following the incubation period, the MTT solution was removed, and 100 μL of dimethyl sulfoxide (DMSO) was added. The absorbance of the resulting purple solution in each well was read (540 nm) using a SpectraMax® Plus 384 spectrophotometer (Molecular Devices, Inc., Sunnyvale, Calif., USA). Each experiment was independently conducted a minimum of three times, and a minimum of four replicate wells were tested for each cell line at each concentration. Data were normalized to the mean optical density of the untreated control cells. […]

[1] = test system: five HNSCC cell lines, parent cells; test: MTT viability/proliferation in media containing 600 μM DETA-NONOate; type: cell-based, human
Experimental: as §1

parent A549 cells = test: as above; type: cell-based, human; details: 600 μM donor, 72 hour period
Experimental: as §1

LP07 parent cells = test: MTT viability/proliferation in media containing 300 μM DETA-NONOate; type: cell-based, mouse; details: LP07 cell line
Experimental: as §1

[2] = buffer, pH 7.4; cited from earlier work
[3] = test system: A549 parent and A549-HNO cells
Experimental: (§2) Exposure to Radicals: Cells were exposed to varying concentrations of hydrogen peroxide to determine if the adapted cells were resistant to high free radical environments generated by oxygen-based free radicals. Parent and adapted cells were seeded (100 μL) into 96-well microtiter plates in the appropriate media (parent cells in media without NO donor, HNO cells in media supplemented with 600 μM DETA-NONOate) and incubated overnight, reaching approximately 70% confluency by the following day. Cells were treated with varying concentrations (0-1.78 mM) of hydrogen peroxide (30% w/w solution, Sigma H1009, Sigma-Aldrich Corp., St. Louis, Mo., USA) and incubated at 37° C. for an additional 24 h. MTT cell viability/proliferation assays were then performed, as described above. A minimum of four replicate wells were measured for each cell line at each concentration, and assays were repeated in triplicate. Data were normalized against the mean of the untreated control cells, and values lying outside of two standard deviations were removed. Data were plotted as the mean normalized absorbance±standard error.

[4] = test system: BT-20 parent and HNO cells
Experimental: as §2

[5] = test system: HNSCC parent and HNO cells; details: 24 h exposure, HNSCC cell lines
Experimental: as §2

[6] = test system: Hs578t parent and HNO cells
Experimental: as §2

[7] = test system: MCF-7 parent and HNO cells
Experimental: as §2

[8] = test system: SCC016 parent and HNO cells
Experimental: as §2

[9] = test system: SCC040 parent and HNO cells
Experimental: as §2

[10] = test system: SCC056 parent and HNO cells
Experimental: as §2

[11] = test system: SCC114 parent and HNO cells
Experimental: as §2

[12] = test system: SCC116 parent and HNO cells
Experimental: as §2

[13] = test system: T-47D parent and HNO cells
Experimental: as §2

[14] = test system: four breast adenocarcinoma cell line pairs, parent and HNO cells; details: 24 h exposure, T-47D, Hs578T, BT-20, MCF-7 pairs
Experimental: as §2

| Compound | minimum concentration studied that was completely lethal to the cells (tumor cell lines) | survival of parent cells in media containing the NO donor [1] | survival of parent cells placed directly into HNO environment (parent A549 cells) | survival of parent cells in media containing the NO donor (LP07 parent cells) | half-life [2] | concentrations at which both parent and HNO cells were killed ([3]; 24 h exposure, A549 and A549-HNO) | H2O2 Resistance: highest concentration of H2O2 that the HNO cell lines grow in which the parent cell lines do not survive ([3]; A549) | H2O2 Resistance: highest concentration of H2O2 that the HNO cell lines grow in which the parent cell lines do not survive [4] | concentrations that killed both parent and HNO cells [5] | H2O2 Resistance: highest concentration of H2O2 that the HNO cell lines grow in which the parent cell lines do not survive [6] | H2O2 Resistance: highest concentration of H2O2 that the HNO cell lines grow in which the parent cell lines do not survive [7] | H2O2 Resistance: highest concentration of H2O2 that the HNO cell lines grow in which the parent cell lines do not survive [8] | H2O2 Resistance: highest concentration of H2O2 that the HNO cell lines grow in which the parent cell lines do not survive [9] | H2O2 Resistance: highest concentration of H2O2 that the HNO cell lines grow in which the parent cell lines do not survive [10] | H2O2 Resistance: highest concentration of H2O2 that the HNO cell lines grow in which the parent cell lines do not survive [11] | H2O2 Resistance: highest concentration of H2O2 that the HNO cell lines grow in which the parent cell lines do not survive [12] | H2O2 Resistance: highest concentration of H2O2 that the HNO cell lines grow in which the parent cell lines do not survive [13] | concentrations at which both parent and HNO cells were killed [14] |
| --- | --- | --- | --- | --- | --- | --- | --- | --- | --- | --- | --- | --- | --- | --- | --- | --- | --- | --- |
| (Z)-1-[2-(2-aminoethyl)-N-(2-ammonioethyl) amino]diazen-1-ium-1,2-diolate [DETA-NONOate] | 600 µM | completely killed | not able to survive | Analogous results | approximately 24 h | – | – | – | – | – | – | – | – | – | – | – | – | – |
| OO [H2O2, hydrogen peroxide] | – | – | – | – | – | ≥ 0.055 mM | 0.055 mM | 0.0069 mM | above 55 μM | 0.0069 mM | 0.014 mM | 0.028 mM | 0.028 mM | 0.028 mM | 0.55 mM | 0.028 mM | 0.028 mM | ≥ 110 µM |
